Columns and labels:
[1] = target: T1, nLuc-RIPK1 fusion protein (Homo sapiens, UniProt Q13546); test: NanoBRET based in-cell RIPK1 target engagement
T1 construct: expressed in transfected cells
T1 sequence (Q13546 1-671): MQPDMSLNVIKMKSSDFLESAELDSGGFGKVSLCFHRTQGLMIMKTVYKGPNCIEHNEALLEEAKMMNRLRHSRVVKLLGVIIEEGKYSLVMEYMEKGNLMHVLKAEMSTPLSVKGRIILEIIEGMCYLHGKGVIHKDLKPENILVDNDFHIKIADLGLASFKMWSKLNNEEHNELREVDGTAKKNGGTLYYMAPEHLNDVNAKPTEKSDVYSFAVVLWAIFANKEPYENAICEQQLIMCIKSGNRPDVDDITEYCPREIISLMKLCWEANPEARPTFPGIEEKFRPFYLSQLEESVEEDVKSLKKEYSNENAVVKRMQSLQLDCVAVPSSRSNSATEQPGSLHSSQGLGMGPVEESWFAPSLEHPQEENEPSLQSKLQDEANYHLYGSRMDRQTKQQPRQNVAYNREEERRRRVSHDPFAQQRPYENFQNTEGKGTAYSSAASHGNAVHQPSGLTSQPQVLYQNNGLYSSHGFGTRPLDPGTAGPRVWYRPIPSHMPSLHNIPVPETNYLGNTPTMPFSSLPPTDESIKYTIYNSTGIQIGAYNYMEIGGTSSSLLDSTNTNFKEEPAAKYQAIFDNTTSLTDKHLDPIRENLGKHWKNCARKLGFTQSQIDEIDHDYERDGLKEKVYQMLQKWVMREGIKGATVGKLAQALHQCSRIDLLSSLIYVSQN
Experimental: Figure 2 LD4172, a RIPK1 PROTAC, induces potent and highly specific degradation of RIPK1 in a panel of cell lines. A, Chemical structures of RIPK1 PROTAC, LD4172, and its negative control, LD4172-NC. […] B, Quantification of RIPK1 levels in both Jurkat and B16F10 cells treated with LD4172 at indicated concentrations for 24 h, followed by Western blotting. C, DC50 and Dmax of LD4172 in various human and mouse cell lines. DC50, the drug concentration causing 50% protein degradation; Dmax, the maximum level of protein degradation. D, RIPK1 degradation kinetics induced by LD4172 treatment (1 μM) and resynthesis kinetics upon washout of LD4172 in both Jurkat and B16F10 cells. E, Quantification of D. The degradation half-life of RIPK1 induced by LD4172 (1 μM) is <2 h in Jurkat and B16F10 cells. […] F, NanoBRET based in-cell RIPK1 target engagement. HEK293 cells were transfected with a plasmid expressing nLuc-RIPK1 fusion protein for 24 h, followed by incubating with a RIPK1 NanoBRET tracer (500 nM) and different concentrations of LD4172 and LD4172-NC (n=3). G, Time-resolved fluorescence resonance energy transfer (TR-FRET) based biochemical binding assay for RIPK1. GST-tagged human RIPK1 (1 nM), Tb-labeled anti-GST antibody (0.3 nM), a RIPK1 TR-FRET tracer (350 nM) and different concentrations of LD4172 (n=3) were incubated for 2 hours, followed by TR-FRET measurements with an excitation wavelength at 340 nm and emission wavelengths at 495 and 520 nm. H, NanoBRET based in-cell assay for ternary complex formation. HEK293T cells were co-transfected with nLuc-RIPK1 and VHL-HaloTag plasmids for 24 h, followed by treatment with indicated concentrations of LD4172 or LD4172-NC (n=3). I, LD4172 induced RIPK1 degradation depends on ternary complex formation, neddylation and proteasome activity. Representative immunoblots of RIPK1 in both Jurkat and B16F10 cells. Cells were treated with RIPK1 inhibitor (T2I), VHL ligand, a neddylation inhibitor (MLN4924) or a proteasome inhibitor (Carfilzomib) at indicated concentrations for 4 hours, followed by LD4172 treatment for 4 hours. J, Proteome profiling of LD4172 induced protein degradation. MDA-MB- 231 cells were treated with LD4172 (200 nM) or LD4172-NC (200 nM) for 6 h (n=3). In total, ~10,000 proteins were quantified in the proteomics experiment. […] Blue dots represent kinases that are inhibited by the warhead of LD4172 but not degraded by LD4172.
To elucidate the formation of a binary complex during RIPK1 degradation, we developed a competitive NanoBRET (Nano-Bioluminescence Resonance Energy transfer)-based target engagement (TE) assay to quantify the binding between RIPK1 and LD4172 in cells[12],[13]. First, we developed a RIPK1 tracer by conjugating the LD4172 warhead T2I with a BODIPY-590 fluorescent dye, dubbed T2–590 (refer to Supporting Information for details). The dissociation equilibrium constant (Kd) between the tracer and RIPK1 was determined to be 0.5 μM by titrating the tracer in HEK293T cells expressing a nLuc-RIPK1 fusion protein. […] This is usually expected, considering that the large molecular weight of LD4172 may lead to poor cellular permeability.

RIPK1 and VHL = target: T2, RIPK1 and VHL (Homo sapiens, UniProt P40337+Q13546); test: NanoBRET live-cell ternary complex assay; assay type: cell-based; conditions: HEK293 cells co-transfected with nLuc-RIPK1 and VHL-Halo
T2 construct: Addgene backbone 87075 (RIPK1 vector, made in house) N273A; host or cells: HEK293T
Experimental: Figure 2 LD4172, a RIPK1 PROTAC, induces potent and highly specific degradation of RIPK1 in a panel of cell lines. A, Chemical structures of RIPK1 PROTAC, LD4172, and its negative control, LD4172-NC. […] B, Quantification of RIPK1 levels in both Jurkat and B16F10 cells treated with LD4172 at indicated concentrations for 24 h, followed by Western blotting. C, DC50 and Dmax of LD4172 in various human and mouse cell lines. DC50, the drug concentration causing 50% protein degradation; Dmax, the maximum level of protein degradation. D, RIPK1 degradation kinetics induced by LD4172 treatment (1 μM) and resynthesis kinetics upon washout of LD4172 in both Jurkat and B16F10 cells. […] G, Time-resolved fluorescence resonance energy transfer (TR-FRET) based biochemical binding assay for RIPK1. […] In total, ~10,000 proteins were quantified in the proteomics experiment. […]
Human RIPK1 cDNA insert was cloned into pLenti6.2-ccdB-nLuc plasmid (87075, Addgene, a kind gift from Taipale Lab) using gateway cloning kit (11791020, Thermo) and standard protocol to obtain pLenti6.2-RIPK1-nLuc fusion vector. […] Immediately before reading the plate, prepare 4x concentrated NanoGlo nLuc substrate (N157, Promega) was prepared by diluting the stock into Opti-MEM 1,000-fold, and the NanoGlo substrate was then added into each well to bring the final concentration to 1x. […]

RIPK1 [2] = target: T3, RIPK1 (Homo sapiens, UniProt Q13546); test: RIPK1 degradation in Jurkat cells, Western blotting; assay type: cell-based; conditions: pre-treatment 4 hours, then LD4172 4 hours
T3 construct: Quantification of RIPK1 levels in Jurkat cells treated with indicated compounds for 24 h; endogenous in cells; host or cells: Jurkat
T3 sequence (Q13546 1-671): T1 sequence (Q13546 1-671)
From the text: (§1) Figure 1 Design and screen of RIPK1 PROTACs. A, Chemical structure and docking modeling of type II inhibitor 1 with the kinase domain of RIPK1 (PDB: 4NEU). The group exposed to solvent region is highlighted with yellow circle. B, Chemical structure and co-crystal structure of type III inhibitor 2 in complex with RIPK1 (PDB: 6R5F). The solventexposed group of inhibitor 2 is highlighted with yellow circle. C, A small library design of RIPK1 PROTACs. Either Type II inhibitor 1 or type III inhibitor 2 is conjugated with various E3 ligase ligands or adamantane tag to generate a small library of RIPK1 PROTACs. D, Quantification of RIPK1 levels in Jurkat cells treated with indicated compounds for 24 h at 0, 0.1, 1 and 10 μM, followed by Western blotting. E, Quantification of D. F, Quantification of RIPK1 levels in both Jurkat and B16F10 cells treated with type II inhibitor-based PROTACs with different linker lengths for 24 h, followed by Western blotting. G, Quantification of F.
(§2) Figure 2 LD4172, a RIPK1 PROTAC, induces potent and highly specific degradation of RIPK1 in a panel of cell lines. […] B, Quantification of RIPK1 levels in both Jurkat and B16F10 cells treated with LD4172 at indicated concentrations for 24 h, followed by Western blotting. […] G, Time-resolved fluorescence resonance energy transfer (TR-FRET) based biochemical binding assay for RIPK1. […]

RIPK1 [3] = target: T4, RIPK1 (Mus musculus, UniProt Q60855); test: RIPK1 degradation in B16F10 mouse melanoma cells, Western blotting; assay type: cell-based; set-up: Quantification of RIPK1 levels in both Jurkat and B16F10 cells; endogenous in cells; host or cells: B16F10; conditions: pre-treatment 4 hours, then LD4172 4 hours
T4 sequence (Q60855 1-656): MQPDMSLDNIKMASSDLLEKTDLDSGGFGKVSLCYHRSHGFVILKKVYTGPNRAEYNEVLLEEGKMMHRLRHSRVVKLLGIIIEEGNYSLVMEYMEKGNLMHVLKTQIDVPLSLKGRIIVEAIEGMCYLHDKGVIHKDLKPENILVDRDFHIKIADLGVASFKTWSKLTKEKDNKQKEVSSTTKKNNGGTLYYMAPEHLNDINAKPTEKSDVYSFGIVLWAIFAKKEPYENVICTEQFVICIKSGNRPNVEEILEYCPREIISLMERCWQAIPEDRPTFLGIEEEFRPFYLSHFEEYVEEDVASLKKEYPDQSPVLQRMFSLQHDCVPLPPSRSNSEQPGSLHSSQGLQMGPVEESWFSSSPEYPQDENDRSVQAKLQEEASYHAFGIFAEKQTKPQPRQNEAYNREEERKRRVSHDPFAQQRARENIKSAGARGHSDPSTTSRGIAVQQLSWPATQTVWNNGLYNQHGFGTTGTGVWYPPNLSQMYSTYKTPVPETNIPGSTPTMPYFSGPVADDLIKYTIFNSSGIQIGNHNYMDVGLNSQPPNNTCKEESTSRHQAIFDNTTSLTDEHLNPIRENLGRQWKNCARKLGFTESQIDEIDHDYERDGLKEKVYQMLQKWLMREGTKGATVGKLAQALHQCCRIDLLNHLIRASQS
From the text: as §1, §2

Structure (SMILES) | target engagement (TE) compared with LD4172 [1] | IC50 ([1]; HEK293 cells, tracer 500 nM, n=3, read-out: IC50 (nM), Fig. 2F) [nM] | ternary complex formation, NanoBRET between RIPK1 and VHL (RIPK1 and VHL) | effect on RIPK1 degradation by LD4172 (RIPK1 [2]) | effect on RIPK1 degradation by LD4172 (RIPK1 [3])
Cc1ncsc1-c1ccc([C@H](C)NC(=O)[C@H]2C[C@H](O)CN2C(=O)[C@@H](NC(=O)CCCCCCCCCCC(=O)NCCCn2cc(-c3ccc4c(c3)CCN4C(=O)Cc3cccc(OC(F)(F)F)c3)c3c(N)ncnc32)C(C)(C)C)cc1 [LD4172-NC] | TE similar to that of LD4172 | 1850 | not |  | 
NS(=O)(=O)OC[C@@H]1C[C@@H](n2ccc3c(N[C@H]4CCc5ccccc54)ncnc32)C[C@@H]1O [MLN4924] |  |  |  | reversed | reversed
CC(C)C[C@H](NC(=O)[C@H](CCc1ccccc1)NC(=O)CN1CCOCC1)C(=O)N[C@@H](Cc1ccccc1)C(=O)N[C@@H](CC(C)C)C(=O)[C@@]1(C)CO1 [carfilzomib] |  |  |  | reversed | reversed

From PMC11042424, “Development of a First-in-Class RIPK1 Degrader to Enhance Antitumor Immunity” (Research Square, 2024)
